Columns and labels:
Tubulin [1] = assay: Tubulin assembly centrifugation assay; assay type: biochemical; details: 1.0 μM compound
Method: In this example, the mechanism of TH-237A's neuroprotective effects was investigated. In a first experiment, the microtubule-stabilizing ability of TH-237A was investigated using a tubulin assembly centrifugation assay. Tubulin (1.0 mg/ml), free of microtubule-associated proteins (“MAPs”), was incubated in PEM buffer (0.1 M Pipes, 1 mM EGTA, 1 mM MgSO4, pH 6.9), 4% DMSO, various concentrations of paclitaxel or TH-237A, with or without 0.5 mM GTP, in a total volume of 0.1 ml for 15 minutes at 37° C. Samples were centrifuged at 50,000×g for 4 minutes in a Beckman TL-100 ultracentrifuge. Protein determinations were performed on the supernatants and the amount of polymer formed was calculated from the difference between the starting concentration and the supernatant concentration. The maximum concentration of polymer was taken to be that formed at 25 μM paclitaxel. An experiment was also done using a tubulin preparation containing microtubule-associated proteins (“MTP”) at a protein concentration of 2 mg/ml without GTP.

microtubules [2] = assay: Cold stability of microtubules; assay type: biochemical; details: 25 μM compound, on ice 15 minutes
Method: In another experiment, the cold stability of microtubles was investigated. Microtubules were formed from MAP-free tubulin (2 mg/ml) and MTP (2 mg/ml) at 37° C. A sample was centrifuged at 50,000×g to determine the amount of polymer formed. To three other samples DMSO, 20 μM paclitaxel or 400 μM TH-237A was added, and the samples were placed on ice for 15 minutes before centrifuging at 4° C. Pellets were dissolved in 0.1 ml of 0.1 M NaOH and protein determinations were made on the supernatants and pellets. Cold-induced depolymerization leads to an increase in the supernatant protein concentration.

microtubules [3] = assay: Competitive binding of paclitaxel and TH-237A to microtubules; details: addition of 40 μM Taxol
Method: Competitive binding of paclitaxel and TH-237A—Microtubules were formed from MTP (2 mg/ml) in the presence of 0.5 mM GTP. […] […] After 10 minutes at 37° C., the microtubules were collected by centrifugation and dissolved in 0.1 ml of 0.1 M NaOH. Protein and radioactivity determinations of the dissolved microtubules were performed.

cellular microtubules = assay: Immunostaining of cellular microtubules; assay type: cell-based; details: 1 and 10 μM
Method: Immunostaining of cellular microtubules—Cells were grown in monolayer on sterile slide cover slips in a 6-well plate and treated with paclitaxel or TH-237A for different periods of time. The cover slips were washed with phosphate-buffered saline and the cells fixed by treatment with 95% EtOH at −20° C. for 30 minutes. The cover slips were placed in a humidified chamber and treated with the primary antibody (a mouse anti-β-tubulin monoclonal antibody) for 2 hours to overnight at room temperature. This was followed by washing with phosphate-buffered saline and treatment with the secondary antibody (FITC goat anti-mouse) for 1 hour at room temperature. Cover slips were examined on a Nikon Optiphot fluorescence microscope.

in vitro = details: bovine, pH 7.4
Method: The BBMECs were grown on 0.4 μm polycarbonate membranes. […] Transport studies were performed in pH 7.4 standard buffer solutions, consisting of either Hank's balanced salt solution (HBSS) or phosphate buffered saline (PBS) supplemented with 0.63 mM CaCl2, 0.74 mM MgSO4, 5.3 mM glucose and 0.1 mM ascorbic acid (PBSA). Briefly, all studies were performed in 3 ml of PBSA in each donor and receiver chamber of the side-by-side diffusion chambers and stirred at 600 rpm at 37° C. The cells were allowed to equilibrate in PBSA for 30 minutes prior to each experiment and oriented such that apical or blood side of the cells face the donor chamber and the basolateral or brain side of the cells adhere to the polycarbonate membranes and face the receiver chamber of the diffusion apparatus. At each time point, a 100 μl sample was taken from the receiver compartment and immediately replaced with an equal volume of PBSA. The transport studies were performed in the presence or absence of CsA (5-10 μM). Monolayers were checked for trypan blue exclusion after experiments as well to assess general cell viability. The permeability of all monolayers used in these experiments was monitored for [^14C] sucrose leakage as a measure of potential TH-237A-induced loss of integrity. The radioactivity was quantified using liquid scintillation spectrometry.

Tubulin [4] = details: reported by Shintani et al. 1997; cited from earlier work

Compound	% of tubulin polymerized (Tubulin [1]) [%]	cold-induced depolymerization of microtubules prevented (microtubules [2]) [%]	displacement of bound labeled TH-237A (100 μM) from microtubules (microtubules [3])	polymerization of the microtubules in situ in the cells (cellular microtubules)	Papp (in vitro) [×10⁻⁶ cm/s]	stimulation of tubulin polymerization relative to paclitaxel (Tubulin [4])
CC(=O)O[C@H]1C(=O)[C@@]2(C)[C@H]([C@H](OC(=O)c3ccccc3)[C@]3(O)C[C@H](OC(=O)[C@H](O)[C@@H](NC(=O)c4ccccc4)c4ccccc4)C(C)=C1C3(C)C)[C@]1(OC(C)=O)CO[C@@H]1C[C@@H]2O [Taxol, Paclitaxel]	75	~100	about 5%	clearly evident	5	
OCC12CO[C@H](c3ccc(F)cc3)N1[C@@H](c1ccc(F)cc1)OC2 [GS-164, (3R,5R)-(3,5-bis(4-fluorophenyl)tetrahydro-1H-oxazolo[3,4-c]oxazol-7a-yl)methanol]						one-tenth
